Data on 20 compounds can be found in PubChem BioAssay AID330 (DTP/NCI, 2004).

Toxic doses and inconclusive results are not listed.

This experiment concerns P388 leukemia ip, CD2F1 mice, survival T/C. The experiment can be described thus: NCI In Vivo Anticancer Drug Screen. Data for tumor model P388 Leukemia (intraperitoneal) in CD2F1 (CDF1) mice. As to conditions: endpoint: median survival time, higher = longer survival. The method in brief: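 Mice carrying the transplanted tumor received test compound or vehicle. Survival was recorded in each group, and the value is the treated-group measurement divided by that of the vehicle-treated control group.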

The mark [1] stands for this setting: dose: 50.0 mg/kg/injection, schedule: Q01DX005 (ip), vehicle: saline with Tween-80.
The mark [2] stands for this setting: dose: 100.0 mg/kg/injection, schedule: Q01DX005 (ip), vehicle: saline with Tween-80.
The mark [3] stands for this setting: dose: 50.0 mg/kg/injection, schedule: Q01DX009 (ip), vehicle: saline.
Where [4] appears, read: dose: 100.0 mg/kg/injection, schedule: Q01DX009 (ip), vehicle: saline.
The mark [5] stands for this setting: dose: 200.0 mg/kg/injection, schedule: Q01DX009 (ip), vehicle: saline.
[6] abbreviates: dose: 50.0 mg/kg/injection, schedule: Q01DX005 (ip), vehicle: Klucel (hydroxypropylcellulose) (HPC).
[7] abbreviates: dose: 12.5 mg/kg/injection, schedule: Q01DX009 (ip), vehicle: saline with Tween-80.
The mark [8] stands for this setting: dose: 25.0 mg/kg/injection, schedule: Q01DX009 (ip), vehicle: saline with Tween-80.
Setting [9] is: dose: 60.0 mg/kg/injection, schedule: Q01DX005 (ip), vehicle: saline with Tween-80.
The mark [10] stands for this setting: dose: 120.0 mg/kg/injection, schedule: Q01DX005 (ip), vehicle: saline with Tween-80.
Where [11] appears, read: dose: 240.0 mg/kg/injection, schedule: Q01DX005 (ip), vehicle: saline with Tween-80.
The mark [12] stands for this setting: dose: 60.0 mg/kg/injection, schedule: Q01DX005 (ip), vehicle: saline.
Where [13] appears, read: dose: 120.0 mg/kg/injection, schedule: Q01DX005 (ip), vehicle: saline.
Setting [14] is: dose: 240.0 mg/kg/injection, schedule: Q01DX005 (ip), vehicle: saline.
Where [15] appears, read: dose: 100.0 mg/kg/injection, schedule: Q01DX005 (ip), vehicle: Klucel (hydroxypropylcellulose) (HPC).
The mark [16] stands for this setting: dose: 200.0 mg/kg/injection, schedule: Q01DX005 (ip), vehicle: Klucel (hydroxypropylcellulose) (HPC).

Regarding `O=C1c2ccccc2C(=O)c2c(-c3ccccc3)ccc(-c3ccccc3)c21`, the T/C runs as follows: under setting [1], 93 % of control; under setting [2], 99 % of control; (dose: 200.0 mg/kg/injection, schedule: Q01DX005 (ip), vehicle: saline with Tween-80) 87 % of control.

Regarding `CCOC(=O)C12C3CC4C1C1(Cl)C(Cl)(Cl)C2(Cl)C2(Cl)C3C4C12Cl` (stereo unspecified), the T/C by setting is: (dose: 100.0 mg/kg/injection, schedule: Q04DX002 (ip), vehicle: saline with Tween-80) 94 % of control; (dose: 200.0 mg/kg/injection, schedule: Q04DX002 (ip), vehicle: saline with Tween-80) 93 % of control; (dose: 400.0 mg/kg/injection, schedule: Q04DX002 (ip), vehicle: saline with Tween-80) 109 % of control.

`COc1ccc(NC(=O)Oc2ccc3c(C)cc(=O)oc3c2)c(OC)c1`: the T/C is, setting by setting: (dose: 100.0 mg/kg/injection, schedule: Q01DX009 (ip), vehicle: saline with Tween-80) 122 % of control; (dose: 200.0 mg/kg/injection, schedule: Q01DX009 (ip), vehicle: saline with Tween-80) 121 % of control; (dose: 400.0 mg/kg/injection, schedule: Q01DX009 (ip), vehicle: saline with Tween-80) 91 % of control.

On to `CN1C(=C2C=CC(=NS(=O)(=O)c3ccc(Cl)cc3)C=C2)Sc2ccccc21`, for which the T/C runs as follows: (dose: 100.0 mg/kg/injection, schedule: Q04DX003 (ip), vehicle: saline) 105 % of control; (dose: 200.0 mg/kg/injection, schedule: Q04DX003 (ip), vehicle: saline) 106 % of control; (dose: 400.0 mg/kg/injection, schedule: Q04DX003 (ip), vehicle: saline) 100 % of control.

For `CCOC(=O)CC(=O)c1ccc(Cl)cc1`, the T/C was 100 % of control (dose: 25.0 mg/kg/injection, schedule: Q01DX009 (ip), vehicle: saline); 100 % of control under setting [3]; 104 % of control under setting [4]; 101 % of control under setting [5].

As to `CC(C)N(C(C)C)p1n(C(C)(C)C)n1C(C)(C)C`, the T/C runs as follows: (dose: 12.5 mg/kg/injection, schedule: Q01DX005 (ip), vehicle: Klucel (hydroxypropylcellulose) (HPC)) 108 % of control; (dose: 25.0 mg/kg/injection, schedule: Q01DX005 (ip), vehicle: Klucel (hydroxypropylcellulose) (HPC)) 117 % of control; under setting [6], 110 % of control.

Consider `CCCCCCCCCCCCCCCC(=O)N(CCCN)CCCN(CCCN)C(=O)CCCCCCCCCCCCCCC`, for which the T/C under setting [7] was 86 % of control; the T/C under setting [8] was 109 % of control; the T/C (dose: 50.0 mg/kg/injection, schedule: Q01DX009 (ip), vehicle: saline with Tween-80) was 100 % of control.

Take `Cc1ccc(C(C)C)c2c1CN(CCN1COc3c(C(C)C)ccc(C)c3C1)CO2`: the T/C reads like this: (dose: 15.0 mg/kg/injection, schedule: Q01DX005 (ip), vehicle: saline with Tween-80) 99 % of control; (dose: 30.0 mg/kg/injection, schedule: Q01DX005 (ip), vehicle: saline with Tween-80) 98 % of control; under setting [9], 91 % of control.

Turning to `Cc1ccc(C(=O)C[n+]2ccccc2)c(O)c1`, the T/C reads like this: under setting [9], 98 % of control; under setting [10], 100 % of control.

`COC(=O)/C=C/c1c2ccccc2cc2ccccc12`: the T/C runs as follows: under setting [9], 96 % of control; under setting [10], 96 % of control; under setting [11], 90 % of control.

`Nc1nc(N)c(-c2cccc(Cl)c2)c(CBr)n1`: the T/C was 113 % of control under setting [7] and 114 % of control under setting [8].

Turning to `COC(=O)[C@@H]1N2C(=O)C=NO[C@H]2SC1(C)C`, the T/C reads like this: under setting [12], 95 % of control; under setting [13], 98 % of control; under setting [14], 104 % of control.

On to `Oc1ccc2[nH]cc(CCNCC3(O)OCC(O)C(O)C3O)c2c1` (stereo unspecified), for which the T/C under setting [12] was 98 % of control, the T/C under setting [13] was 101 % of control and the T/C under setting [14] is 91 % of control.

For the compound `COc1cc2c(cc1OC)[C@H](Cc1ccc(Oc3cc4c(cc3O)-c3c(OC)c(OC)cc5c3[C@@H](C4)N(C)CC5)cc1)N(C)CC2`, the T/C (dose: 11.88 mg/kg/injection, schedule: Q01DX005 (ip), vehicle: Klucel (hydroxypropylcellulose) (HPC)) is 98 % of control; the T/C (dose: 23.75 mg/kg/injection, schedule: Q01DX005 (ip), vehicle: Klucel (hydroxypropylcellulose) (HPC)) was 92 % of control; the T/C (dose: 47.5 mg/kg/injection, schedule: Q01DX005 (ip), vehicle: Klucel (hydroxypropylcellulose) (HPC)) was 93 % of control; the T/C (dose: 95.0 mg/kg/injection, schedule: Q01DX005 (ip), vehicle: Klucel (hydroxypropylcellulose) (HPC)) was 105 % of control.

In the case of `COc1ccc(-c2cc(-c3ccc(OC)cc3)nc(-c3ccc(OC)cc3)c2)cc1`, the T/C under setting [6] is 98 % of control, the T/C under setting [15] was 94 % of control and the T/C under setting [16] was 89 % of control.

For the compound `O=[N+]([O-])c1ccc(O)c(/C=N\NS(=O)(=O)c2ccc(F)cc2)c1`, the T/C was 103 % of control under setting [1] and 93 % of control under setting [2].

As to `COc1cc(C[C@@H]2COC(=O)[C@]2(O)Cc2ccc(O)c(OC)c2)ccc1O`, the T/C by setting is: (dose: 1.25 mg/kg/injection, schedule: Q01DX009 (ip), vehicle: alcohol) 100 % of control; (dose: 2.5 mg/kg/injection, schedule: Q01DX009 (ip), vehicle: alcohol) 113 % of control; (dose: 5.0 mg/kg/injection, schedule: Q01DX009 (ip), vehicle: alcohol) 104 % of control; (dose: 8.0 mg/kg/injection, schedule: Q01DX009 (ip), vehicle: saline + alcohol) 124 % of control; (dose: 16.0 mg/kg/injection, schedule: Q01DX009 (ip), vehicle: saline + alcohol) 154 % of control.

Consider `O=C([O-])[O-].O=S(=O)(O)O.[Co+3].[NH-]CC[NH-].[NH-]CC[NH-]`, for which the T/C is, setting by setting: under setting [3], 90 % of control; under setting [4], 93 % of control; under setting [5], 94 % of control.

In the case of `Cc1cc(=O)oc2ccc(C(=O)/C=C/N(C)C)c(O)c12`, the T/C is, setting by setting: under setting [9], 96 % of control; under setting [10], 92 % of control; under setting [11], 89 % of control.

As for `COC(=O)c1ccccc1S(=O)(=O)NC(C)C`, the T/C by setting is: under setting [6], 99 % of control; under setting [15], 96 % of control; under setting [16], 105 % of control.
